# ChEMBL document CHEMBL1136153, “2-oxoglutarate analogue inhibitors of HIF prolyl hydroxylase” (Bioorg Med Chem Lett, 2003)
# Experiment: Inhibitory concentration against oxoglutarate oxygenase was determined
structure (smiles),measurement,value
O=C(O)CCC(S)C(=O)O (stereo unspecified),IC50,120 µM
